Assay results from patent US20230277452A1, “COMPOSITIONS, DEVICES AND METHODS FOR TREATING NASAL, OTIC AND OTHER TISSUE INFECTION AND/OR INFLAMMATION” (priority 2020, published 2023).

Key:
in vivo = experiment: in vivo
Procedure: The control article was 0.9% saline.
Blood was collected (via a jugular vein cannula inserted during surgery) during the 10-day post-dose phase for pharmacokinetics, hematology, clinical chemistry, glucose, and morning cortisol analysis.
Because of the variability in the volume of the sinus in sheep, the total volume varied from 5 to 15 mL. Doses calculated by body weight and body surface area (BSA) are also shown.

[1] = Recovery of force-degraded fluticasone propionate spiked into placebo and of active cream, HPLC; assay type: physicochemical

Difference with Placebo (neat vs spiked recovery) ([1]; 0.1N HC1 (1 hour)) | Difference with Placebo (neat vs spiked recovery) ([1]; 0.1N NaOH (1 hour)) | Difference with Placebo (neat vs spiked recovery) ([1]; 3% H2O2 (1 hour)) | Difference with Placebo (neat vs spiked recovery) ([1]; 60° C. (3 days)) | Difference with Placebo (neat vs spiked recovery) ([1]; Control (undegraded FP, kept at 4 C.)) | Difference with Placebo (neat vs spiked recovery) ([1]; White light (3 days)) | SMILES | plasma levels detected through (in vivo; in vivo) | Tmax (in vivo; sheep plasma, intra-sinus 0.05% betamethasone dipropionate cream, median (range), n = 6) | AUCinf (in vivo; sheep, in vivo) | AUClast (in vivo; sheep, in vivo) | Apparent half-life (in vivo; sheep, in vivo) | Cmax (in vivo; sheep, in vivo)
– | – | – | – | – | – | CCC(=O)O[C@]1(C(=O)CO)[C@@H](C)C[C@H]2[C@@H]3CCC4=CC(=O)C=C[C@]4(C)[C@@]3(F)[C@@H](O)C[C@@]21C [Betamethasone 17-propionate, betamethasone 17-propionate] | 3 days post-dose | 0.5 (0.5-2) hr | 59.3 ± 44.8 ng·h/mL | 58.3 ± 44.7 ng·h/mL | 9.5 ± 2.2 h | 8,279 ± 3,376 pg/ml
6.03% | 0.19% | 4.03% | 1.09% | 0.2-1.1% ^ | 2.71% | CCC(=O)O[C@]1(C(=O)SCF)[C@H](C)C[C@H]2[C@@H]3C[C@H](F)C4=CC(=O)C=C[C@]4(C)[C@@]3(F)[C@@H](O)C[C@@]21C [Fluticasone Propionate 0.005%] | – | – | – | – | – | –
